Measured values taken from patent US20160039880A1 (priority 2012, published 2016).
Values after ≈ are worked out from the molar mass of the structure shown. Read-outs that look alike come from different tables or passages of the source. Starred links: 1 amine or outer side, 2 acyl side, 3 side chain; linkers in the order of their positions; H or OH if unused. Non-standard residues stand in square brackets, D forms with d. Residues, ends and D or L forms follow the SMILES beside them. X2 = CC(CCN1CCOCC1)C(O)C(C(=O)[*:2])N(C)[*:1]; X1 = CCN(C(C(=O)[*:2])C(C)C)[*:1]; NMeL = CN[CH](CC(C)C)C(=O)O; NMeV = CN[CH](C(=O)O)C(C)C; NMeA = CN[CH](C)C(=O)O; Abu = CC[CH](N)C(=O)O

How the values were obtained:
[1] = Water Solubility Assay (measured in pH 7.8 buffer); type: physicochemical;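 note: precipitation onset detected as rise in absorbance at 650 nm across increasing concentrations, after shaking for 18 h, blank wells receiving DMSO only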
[2] = biological target: T1, Human recombinant cyclophilin A (Cyp A) (Homo sapiens, UniProt P62937);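 note: cis to trans isomerization of SUC-AAPF-pNA by 2 nM enzyme, read as absorbance at 330 nm over 300 s at 10 °C, catalytic rate corrected for uncatalyzed background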
T1 sequence (P62937 whole entry): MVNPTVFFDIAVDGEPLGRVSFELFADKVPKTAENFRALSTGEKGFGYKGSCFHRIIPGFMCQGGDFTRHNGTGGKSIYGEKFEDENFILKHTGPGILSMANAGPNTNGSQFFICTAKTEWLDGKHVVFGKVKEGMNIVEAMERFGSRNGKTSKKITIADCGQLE

Calcineurin [3] = biological target: T2, Calcineurin (Homo sapiens, UniProt P62937+P63098+Q08209)
T2 sequence (P63098 whole entry, other chains not shown): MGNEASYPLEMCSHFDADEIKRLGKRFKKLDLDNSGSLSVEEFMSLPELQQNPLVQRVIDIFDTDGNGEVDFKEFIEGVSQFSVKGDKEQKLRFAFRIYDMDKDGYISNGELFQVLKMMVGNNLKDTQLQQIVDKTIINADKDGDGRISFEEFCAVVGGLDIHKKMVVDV
T2 sequence (P62937 whole entry, other chains not shown): as the sequence (P62937 whole entry) above

[4] = biological target: T1, Human recombinant cyclophilin A (Cyp A); test: Protease-free PPIase assay;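 note: cis to trans isomerization of SUC-AAPF-pNA by 2 nM enzyme, read as absorbance at 330 nm over 300 s at 10 °C, catalytic rate corrected for uncatalyzed background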
Calcineurin [5] = biological target: T2, Calcineurin; test: Calcineurin Phosphatase (CaN) Assay with Cyp A (+CypA); conditions: for IC50: read-out: Calcineurin Phosphatase (CaN) Assay (+CypA) IC50, in the presence of Cyp A
[6] = 35 mM HEPES pH 7.8, 1% DMSO, 25 °C, 18 h, read-out: Water Solubility Assay, concentration at which the compound remains in solution
[7] = read-out: Protease-free PPIase Assay Ki, cyclophilin A, 10 °C
[8] = read-out: Protease-free PPIase Assay Ki, Cyclophilin A (Cyp A) inhibitory activity

Row | SMILES | solubility at 18 h [1, 6] | Ki [4, 7] | IC50 (Calcineurin [5]; 1:1 complex with inhibitor) | other results
1 | CCC1NC(=O)C(C(O)C(C)CCN(CCC(F)(F)F)CCC(F)(F)F)N(C)C(=O)C(C(C)C)N(C)C(=O)C(CC(C)C)N(C)C(=O)C(CC(C)C)N(C)C(=O)C(C)NC(=O)C(C)NC(=O)C(CC(C)C)N(C)C(=O)C(C(C)C)NC(=O)C(CC(C)C)N(C)C(=O)C(C)N(C)C1=O [Compound EQ, (3R,4R,5S)-1-[Bis-(3,3,3-trifluoro-propyl)-amino]-[(4-Hydroxy-3-methyl-5-(methylamino)-hexanoic acid]^1[(R)-methyl-Sar]^3 cyclosporin A] | – | – | – | Water Solubility Assay ([1]; pH 7.8): 25 to 50 µM; Ki [2]: 4.6 nM; immunosuppressive potential (Calcineurin [3]): more immunosuppressive potential than others
2 | CC[C@@H]1NC(=O)[C@H]([C@H](O)[C@H](C)CCCC(=O)N2C[C@H]3CN(C)C[C@H]3C2)N(C)C(=O)[C@H](C(C)C)N(C)C(=O)[C@H](CC(C)C)N(C)C(=O)[C@H](CC(C)C)N(C)C(=O)[C@@H](C)NC(=O)[C@H](C)NC(=O)[C@H](CC(C)C)N(C)C(=O)[C@H](C(C)C)NC(=O)[C@H](CC(C)C)N(C)C(=O)[C@@H](C)N(C)C1=O (relative stereo) [Compound ZZ, [(5R,6R,7S)-6-hydroxy-5-methyl-7-(methylamino)-1-(N-(3aR*,6aS*)-2-methyloctahydropyrrolo[3,4-c]pyrrolo)-1-oxo-octanoic acid]1[(R)-methyl-Sar]3 cyclosporin A] | >100 µM | 2.6 nM | > 10000 nM | –
3 | CCC1NC(=O)C(C(O)C(C)CCN2CCOCC2)N(C)C(=O)C(C(C)C)N(C)C(=O)C(CC(C)C)N(C)C(=O)C(CC(C)C)N(C)C(=O)C(C)NC(=O)C(C)NC(=O)C(CC(C)C)N(C)C(=O)C(C(C)C)NC(=O)C(C(C)C)N(CC)C(=O)C(C)N(C)C1=O [Compound EJ, [(3R,4R,5S)-4-Hydroxy-3-methyl-1-(morpholin-4-yl)-hexanoic acid]^1[(R)-methyl-Sar]^3[Ethyl-Val]^4 cyclosporin A] (cyclo([X1]V[NMeL]AA[NMeL][NMeL][NMeV][X2][Abu][NMeA]); configuration not given here) | – | – | – | solubility at 18 h ([1]; pH 7.8 buffer, read-out: Water Solubility Assay): >100 µM; Ki [4, 8]: 9 nM; IC50 (Calcineurin [5]): > 10000 nM
4 | CC[C@H]1NC(=O)[C@@H]([C@H](O)[C@H](C)CCCC(=O)N2CCOCC2)N(C)C(=O)[C@@H](C(C)C)N(C)C(=O)[C@@H](CC(C)C)N(C)C(=O)[C@@H](CC(C)C)N(C)C(=O)[C@H](C)NC(=O)[C@@H](C)NC(=O)[C@@H](CC(C)C)N(C)C(=O)[C@@H](C(C)C)NC(=O)[C@H](CC(C)C)N(C)C(=O)[C@@H](C)N(C)C1=O [Compound H, [(5R,6R,7S)-6-hydroxy-5-methyl-7-(methylamino)-1-N-morpholino-1-oxo-octanoic acid]^1[(R)-methyl-Sar]^3 cyclosporin A] | >100 µM | 3.9 nM | > 10000 nM | –
5 | CC[C@H]1NC(=O)[C@@H]([C@H](O)[C@H](C)CCN2CCOCC2)N(C)C(=O)[C@@H](C(C)C)N(C)C(=O)[C@@H](CC(C)C)N(C)C(=O)[C@@H](CC(C)C)N(C)C(=O)[C@H](C)NC(=O)[C@@H](C)NC(=O)[C@@H](CC(C)C)N(C)C(=O)[C@@H](C(C)C)NC(=O)[C@H](CC(C)C)N(C)C(=O)[C@@H](CSCCN(CC)CC)N(C)C1=O [Compound AC, [(3R,4R,5S)-4-Hydroxy-3-methyl-5-(methylamino)-1-N-morpholino-hexanoic acid]^1[(S)-2-diethylaminoethylthiomethyl-Sar]^3 cyclosporin A] | >100 µM | 7.5 nM | > 10000 nM | –
6 | CC[C@H]1NC(=O)[C@@H]([C@H](O)[C@H](C)CCCCCN2CCOCC2)N(C)C(=O)[C@@H](C(C)C)N(C)C(=O)[C@@H](CC(C)C)N(C)C(=O)[C@@H](CC(C)C)N(C)C(=O)[C@H](C)NC(=O)[C@@H](C)NC(=O)[C@@H](CC(C)C)N(C)C(=O)[C@@H](C(C)C)NC(=O)[C@H](CC(C)C)N(C)C(=O)[C@@H](C)N(C)C1=O [Compound G, [(6R,7R,8S)-7-hydroxy-6-methyl-8-(methylamino)-1-N-morpholino-nonanoic acid]^1[(R)-methyl-Sar]^3 cyclosporin A] | >100 µM | 6.2 nM | > 10000 nM | –
7 | CC[C@H]1NC(=O)[C@@H]([C@H](O)[C@H](C)CCN2CCOCC2)N(C)C(=O)[C@@H](C(C)C)N(C)C(=O)[C@@H](CC(C)C)N(C)C(=O)[C@@H](CC(C)C)N(C)C(=O)[C@H](C)NC(=O)[C@@H](C)NC(=O)[C@@H](CC(C)C)N(C)C(=O)[C@@H](C(C)C)NC(=O)[C@H](CC(C)C)N(C)C(=O)[C@@H](COCCN(CC)CC)N(C)C1=O [Compound S, [(3R,4R,5S)-4-Hydroxy-3-methyl-5-(methylamino)-1-N-morpholino-hexanoic acid]^1[(R)-2-diethylaminoethyloxymethyl-Sar]^3 cyclosporin A] | >100 µM | 10 nM | > 10000 nM | –
8 | CC[C@H]1NC(=O)[C@@H]([C@H](O)[C@H](C)CCN2CC(F)(F)OC(F)(F)C2)N(C)C(=O)[C@@H](C(C)C)N(C)C(=O)[C@@H](CC(C)C)N(C)C(=O)[C@@H](CC(C)C)N(C)C(=O)[C@H](C)NC(=O)[C@@H](C)NC(=O)[C@@H](CC(C)C)N(C)C(=O)[C@@H](C(C)C)NC(=O)[C@H](CC(C)C)N(C)C(=O)[C@@H](CO)N(C)C1=O [Compound EO] | – | – | – | solubility at 18 h ([1]; 35 mM HEPES buffer pH 7.8, 25 °C, aqueous buffer, kinetic from dmso stock, pH 7.8 buffer, read-out: Water Solubility Assay): 10 to 25 µM (≈ 13.6 to 34.1 µg/mL); Ki [4]: 13 nM; immunosuppressive potential (Calcineurin [5]; in words, as measured by the MLR and CaN assays): more immunosuppressive potential than others
9 | CCC1NC(=O)C(C(O)C(C)CCN2CCCCC2C(F)(F)F)N(C)C(=O)C(C(C)C)N(C)C(=O)C(CC(C)C)N(C)C(=O)C(CC(C)C)N(C)C(=O)C(C)NC(=O)C(C)NC(=O)C(CC(C)C)N(C)C(=O)C(C(C)C)NC(=O)C(CC(C)C)N(C)C(=O)C(C)N(C)C1=O (mixture of isomers) [Compound EB, [(3R,4R,5S)-4-Hydroxy-3-methyl-5-(methylamino)-1-(2-trifluoromethyl-piperidin-1-yl)-hexanoic acid]^1[(R)-methyl-Sar]^3 cyclosporin A] | – | – | – | Ki [4, 8]: 3.7 nM; IC50 (Calcineurin [5]): > 10000 nM
10 | CC[C@H]1NC(=O)[C@@H]([C@H](O)[C@H](C)CCN2CCCOCC2)N(C)C(=O)[C@@H](C(C)C)N(C)C(=O)[C@@H](CC(C)C)N(C)C(=O)[C@@H](CC(C)C)N(C)C(=O)[C@H](C)NC(=O)[C@@H](C)NC(=O)[C@@H](CC(C)C)N(C)C(=O)[C@@H](C(C)C)NC(=O)[C@H](CC(C)C)N(C)C(=O)[C@@H](C)N(C)C1=O [Compound X] | >100 µM | 4.9 nM | > 10000 nM | –
11 | CCC1NC(=O)C(C(O)C(C)CCN2CCCOCC2)N(C)C(=O)C(C(C)C)N(C)C(=O)C(CC(C)C)N(C)C(=O)C(CC(C)C)N(C)C(=O)C(C)NC(=O)C(C)NC(=O)C(CC(C)C)N(C)C(=O)C(C(C)C)NC(=O)C(CC(C)C)N(C)C(=O)C(COCCN(CC)CC)N(C)C1=O [Compound AD, [(3R,4R,5S)-4-Hydroxy-3-methyl-5-(methylamino)-1-N-homomorpholino-hexanoic acid]^1[(R)-2-diethylaminoethyloxymethyl-Sar]^3 cyclosporin A] | – | 18 nM | > 10000 nM | –
12 | CCC1NC(=O)C(C(O)C(C)CCN2CCOCC2)N(C)C(=O)C(C(C)C)N(C)C(=O)C(CC(C)C)N(C)C(=O)C(CC(C)C)N(C)C(=O)C(C)NC(=O)C(C)NC(=O)C(CC(C)C)N(C)C(=O)C(C(C)C)NC(=O)C(CC(C)C)N(C)C(=O)C(CC)N(C)C1=O [Compound AB, [(3R,4R,5S)-4-hydroxy-3-methyl-5-(methylamino)-1-N-morpholino-hexanoic acid]^1[(R)-ethyl-Sar]^3 cyclosporin A] | >100 µM | 5.6 nM | > 10000 nM | –
13 | CC[C@H]1NC(=O)[C@@H]([C@H](O)[C@H](C)CCN2CCC(F)(F)C2)N(C)C(=O)[C@@H](C(C)C)N(C)C(=O)[C@@H](CC(C)C)N(C)C(=O)[C@@H](CC(C)C)N(C)C(=O)[C@H](C)NC(=O)[C@@H](C)NC(=O)[C@@H](CC(C)C)N(C)C(=O)[C@@H](C(C)C)NC(=O)[C@H](CC(C)C)N(C)C(=O)[C@@H](CO)N(C)C1=O [Compound EP] | – | – | – | solubility at 18 h ([1]; 25 °C, pH 7.8, aqueous buffer, kinetic from dmso stock): 50 to 75 µM (≈ 65.6 to 98.4 µg/mL); immunosuppressive potential (Calcineurin [3]): more immunosuppressive potential than others; Ki [4]: 3.4 nM
14 | CC[C@H]1NC(=O)[C@@H]([C@H](O)[C@H](C)CCN2C[C@H]3CN(C)C[C@H]3C2)N(C)C(=O)[C@@H](C(C)C)N(C)C(=O)[C@@H](CC(C)C)N(C)C(=O)[C@@H](CC(C)C)N(C)C(=O)[C@H](C)NC(=O)[C@@H](C)NC(=O)[C@@H](CC(C)C)N(C)C(=O)[C@@H](C(C)C)NC(=O)[C@H](CC(C)C)N(C)C(=O)[C@@H](C)N(C)C1=O (relative stereo) [Compound O, [(3R,4R,5S)-4-Hydroxy-3-methyl-5-(methylamino)-1-(N-(3aR*,6aS*)-2-methyloctahydropyrrolo[3,4-c]pyrrolo)-hexanoic acid]^1[(R)-methyl-Sar]^3 cyclosporin A] | >100 µM | 8.2 nM | > 10000 nM | –
15 | CCC1NC(=O)C(C(O)C(C)CCN2CCOCC2C(F)(F)F)N(C)C(=O)C(C(C)C)N(C)C(=O)C(CC(C)C)N(C)C(=O)C(CC(C)C)N(C)C(=O)C(C)NC(=O)C(C)NC(=O)C(CC(C)C)N(C)C(=O)C(C(C)C)NC(=O)C(CC(C)C)N(C)C(=O)C(C)N(C)C1=O (mixture of isomers) [Compound EC, [(3R,4R,5S)-4-Hydroxy-3-methyl-5-(methylamino)-1-(3-trifluoromethyl-morpholin-4-yl)-hexanoic acid]^1[(R)-methyl-Sar]^3 cyclosporin A] | – | – | – | Ki [4, 8]: 5.2 nM; IC50 (Calcineurin [5]): > 10000 nM
